Reference: PubChem BioAssay (NCI)
“And” between values parts separate entries of the source, which are not always exact repeats. Equal entries are not always repeated.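 Where inhibition never reached the appropriate level, the endpoint shown equals the highest concentration tested. Otherwise, values were interpolated linearly from a five-concentration, 48-hour dose response in 96-well plates. GI50 = concentration required for 50% inhibition of growth. TGI is the concentration that stops growth completely.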

Tests used:
Assay in all cases: DTP human tumour cell line panel, 48 h
ACHN renal = system: ACHN renal
HCC-2998 colon = system: HCC-2998 colon
MDA-MB-231 breast = system: MDA-MB-231 breast
NCI-H522 lung = system: NCI-H522 lung
NCI/ADR-RES ovarian = system: NCI/ADR-RES ovarian
OVCAR-4 ovarian = system: OVCAR-4 ovarian
OVCAR-5 ovarian = system: OVCAR-5 ovarian
OVCAR-8 ovarian = system: OVCAR-8 ovarian
SF-295 CNS = system: SF-295 CNS
UACC-257 melanoma = system: UACC-257 melanoma

Row | SMILES | TGI (ACHN renal) | TGI (HCC-2998 colon) | TGI (MDA-MB-231 breast) | TGI (NCI-H522 lung) | TGI (NCI/ADR-RES ovarian) | TGI (OVCAR-4 ovarian) | TGI (OVCAR-5 ovarian) | TGI (OVCAR-8 ovarian) | TGI (SF-295 CNS) | TGI (UACC-257 melanoma) | GI50 (ACHN renal) | GI50 (HCC-2998 colon) | GI50 (MDA-MB-231 breast) | GI50 (NCI-H522 lung) | GI50 (NCI/ADR-RES ovarian) | GI50 (OVCAR-4 ovarian) | GI50 (OVCAR-5 ovarian) | GI50 (OVCAR-8 ovarian) | GI50 (SF-295 CNS) | GI50 (UACC-257 melanoma)
1 | O=C(O)CCCCn1cnc2c(=S)nc[nH]c21 | > 100 µM | > 100 µM | > 100 µM | > 100 µM | > 100 µM | > 100 µM | > 100 µM | > 100 µM | > 100 µM | > 100 µM |  |  |  |  |  |  |  |  |  | 
2 | N#Cc1c(-c2ccccc2)cc(-c2ccccc2)n(CCCCC(=O)NO)c1=O | 7.91 µM | 10.8 µM | 10.1 µM | 8.36 µM | 3.18 µM | 16.5 µM | 10.9 µM | 14 µM | 4.56 µM | 12.4 µM | 2.32 µM | 2.65 µM | 3.27 µM | 2.06 µM | 0.703 µM | 2.74 µM | 2.6 µM | 2.16 µM | 2.13 µM | 2.15 µM
3 | COc1ccc(-c2cc(/C=C3\C(=O)Nc4ccc(OC)cc43)[nH]n2)cc1 | > 100 µM | > 100 µM | > 100 µM | > 100 µM | > 100 µM | > 100 µM | > 100 µM | > 100 µM | > 100 µM | > 100 µM | > 100 µM | > 100 µM | > 100 µM | 11 µM | 31.8 µM | > 100 µM | > 100 µM | 19.5 µM | 2.89 µM | > 100 µM
4 | CC(=O)OC[C@]12CC[C@@H]([C@@H](C)C(N)=O)[C@@H]1[C@H]1CC[C@@H]3[C@@]4(C)CC[C@H](OC(C)=O)C(C)(C)[C@@H]4CC[C@@]3(C)[C@]1(C)CC2 | 27.3 µM | 26.1 µM | 30.8 µM | 20.7 µM | 27.2 µM | 18.5 µM | 32.2 µM | 25.2 µM | 29.8 µM | 22.7 µM | 5.78 µM | 10.4 µM | 11.8 µM | 4.94 µM | 7.74 µM | 4.72 µM | 14.4 µM | 5.44 µM | 8.57 µM | 4.83 µM
5 | COc1ccc(Cc2cnc(NC(=O)c3sc4ccccc4c3Cl)s2)cc1 | > 100 µM | > 100 µM | > 100 µM |  | > 100 µM | > 100 µM | > 100 µM | > 100 µM | > 100 µM | > 100 µM | 0.808 µM | 0.547 µM | 0.585 µM | 0.279 µM | 0.342 µM | 2.82 µM | 0.587 µM | 0.508 µM | 0.383 µM | 25.7 µM
6 | CN1c2ccccc2S(=O)(=O)n2c(COc3ccc(Cl)cc3)nnc21 | > 100 µM | > 100 µM | > 100 µM | > 100 µM | > 100 µM | > 100 µM | > 100 µM | > 100 µM | 92.7 µM | > 100 µM |  |  |  |  |  |  |  |  |  | 
7 | COc1c(CNC(=O)CCl)cc2[nH]c(C)cc2c1CNC(=O)CCl | 31.6 µM | 30.4 µM | 41.3 µM | 4.16 µM | > 100 µM | 22.3 µM | 25.9 µM | 60.4 µM | 71.9 µM | 36.5 µM | 5.47 µM | 13.2 µM | 6.12 µM | 1.82 µM | 56.1 µM | 4.55 µM | 5.44 µM | 4.73 µM | 12.8 µM | 6.8 µM
8 | COc1cc([C@@H]2c3cc4c(cc3[C@H](O)[C@H]3COC(=O)[C@H]23)OCO4)cc(OC)c1OC | > 100 µM and 50 µM |  |  | < 0.01 µM | < 0.005 µM |  | > 100 µM and 46.3 µM | > 100 µM and 50 µM and > 7.6 µM |  | > 100 µM and 50 µM | < 0.01 µM | < 0.005 µM | < 0.01 µM | < 0.01 µM |  | < 0.005 µM |  | < 0.01 µM | < 0.01 µM | 
9 | COc1cccc(C2C3=C(COC3=O)N(CCO)c3cc4c(cc32)OCCO4)c1 (configuration not stated) | > 50 µM | 0.242 µM | 34.5 µM | 0.0208 µM | 0.727 µM | > 50 µM | > 50 µM | > 50 µM |  | > 50 µM | 0.769 µM | 0.0957 µM | 0.257 µM | 0.00807 µM | 0.137 µM | 0.472 µM | 0.427 µM | 0.22 µM | 0.0389 µM | 0.0467 µM
10 | Cc1ccccc1N=Nc1c(O)[nH]c2ccccc12 | > 100 µM | > 100 µM | > 100 µM | > 100 µM | > 100 µM | > 100 µM | > 100 µM | > 100 µM | > 100 µM | > 100 µM |  |  |  |  |  |  |  |  |  | 
11 | CCOC(=O)C1=C(C)NC2SC(=O)/C(=C\c3ccccc3)N2C1c1ccccc1 (configuration not stated) | > 100 µM | > 100 µM | > 100 µM | > 100 µM | > 100 µM | > 100 µM | > 100 µM | > 100 µM | > 100 µM | > 100 µM | > 100 µM | > 100 µM | > 100 µM | > 100 µM | > 100 µM | 78.1 µM | > 100 µM | > 100 µM | > 100 µM | > 100 µM
12 | COc1cc2c3c(n(C)c(=O)c2cc1OC)-c1cc2c(cc1/C3=C\CCCBr)OCO2 | 25.3 µM | > 51.3 µM | > 45.3 µM | > 30.2 µM | > 100 µM | > 100 µM | > 70.6 µM | > 48.7 µM | 30.8 µM | > 100 µM | 7.37 µM |  | 9.16 µM |  |  | 39.2 µM | 19.3 µM |  | 9.16 µM | > 41.5 µM
13 | CC[C@H](C)n1cc(C)c2c(C(=O)NCc3c(C)cc(C)[nH]c3=O)cc(-c3ccc(N4CCNCC4)nc3)cc21 | 31.2 µM and 31.3 µM | 30.2 µM and 23.4 µM | 19.5 µM and 20.5 µM | 34.2 µM and 29.5 µM | > 100 µM and 33.7 µM | 28.9 µM and 26.4 µM | 30.5 µM and 29.9 µM | 37.4 µM and 37.6 µM | 31.9 µM and 29.3 µM | 31.5 µM and 29.5 µM | 17.1 µM and 16.5 µM | 14.7 µM and 9.46 µM | 6.38 µM and 7 µM | 17.6 µM and 14 µM | 35.1 µM and 17.6 µM | 13.4 µM and 12.5 µM | 16.1 µM and 15.3 µM | 18.5 µM and 17.7 µM | 16.2 µM and 14.8 µM | 16.5 µM and 14.8 µM
14 | O=C1/C(=C/c2ccccc2)CCC/C1=C\c1ccccc1 | 12.1 µM and 29.2 µM and 26.2 µM | 25.8 µM and 7.64 µM | 11.6 µM and 68.1 µM | 11.8 µM and 31.8 µM and 35 µM | 17.1 µM and 95.5 µM | 11.8 µM and 32.4 µM | 12 µM and 31.7 µM and 43.3 µM | 13.6 µM and 28.1 µM and 25.4 µM | 13.6 µM and 26.5 µM | 11.7 µM and 39.8 µM and 33.3 µM | 6.72 µM and 9.22 µM | 2.72 µM | 18.5 µM | 6.46 µM and 13.7 µM and 15.7 µM | 17.5 µM | 6.18 µM | 6.75 µM and 22 µM | 3.57 µM | 7.49 µM | 6.3 µM and 13.1 µM
